# Measurements taken from patent publication US20190282558A1, “Methods of Treating Zika Virus Infection” (Emergent Virology LLC, priority 2016, published 2019).
# Where two headings read alike, the source gives them in different places.
# Assays:
# [1] = tested on: Zika virus, PR ABC strain (ZIKV, PR2015); assay: Yield reduction assay followed by plaque assay in Vero cells, ZIKV PR2015; format: cell-based; details: 120 h, read-out: ZIKV, PR2015 IC50
# Experimental: (§1) The iminosugar compounds set forth in Table 4, below, were evaluated for antiviral activity against Zika virus, FSS 13025 strain (ZIKV, Cambodia 2010) and PR ABC strain (ZIKV, PR2015) in an yield reduction assay followed by a plaque assay.
# In the yield reduction assay, Vero cells were seeded in 24-well plates and incubated overnight. The next day, serial dilutions of a given compound were prepared at 200 μM, 100 μM, 20 μM, 4 μM, 0.8 μM, 0.16 μM, 0.03 μM, and 0.01 μM. Growth medium was removed from the cells and the serial dilutions of the given compound were added in duplicate for one hour. Zika virus, PR ABC strain (ZIKV, PR2015) was added at a multiplicity of infection (MOI) of 0.01 for one hour. Growth medium was added to 1 mL and the cells were incubated for 5 days. Thereafter, cell supernatants were harvested, cleared of cell debris by centrifugation, and stored at −80° C. until further analysis for viral content in a plaque assay.
# Plaque assays were performed by seeding Vero cells in 24-well plates and allowing the cells to adhere overnight. The next day each of the harvested supernatants from the yield-reduction assay were serially diluted 10-fold, growth medium was removed from the cells, and the adhered cells were infected with the dilutions of the supernatants for 1 h. The cells were incubated with 0.8% carboxymethyl cellulose (CMC) for 3 days. At the end of the incubation, CMC overlay was removed, and the cells were permeabilized with an 80%/20% (V/V) mixture of ethanol and methanol for 10 min at −20° C. Plaques were visualized by performing an immunostaining assay with monoclonal 4G2 (ATCC) which was detected by HRP-conjugated goat anti-mouse antibody and visualized using HRP-conjugated goat anti-mouse polyclonal antibodies. Relative inhibition was calculated using IDBS XLFIT analysis program.
# (§2) The duplicate titers for virus-only (vehicle control) were averaged and used as 0% inhibition. Efficacy data for the compounds were reported as the mean of the duplicates, including the standard deviation (SD) and coefficient of variation (% CV). FIGS. 2A, 2B, 3A, 3B, 4A, 4B, 5A, 5B, 6A, 6B, 7A, 7B, 8A, 8B, 9A, 9B, 10A, 10B, 11A, 11B, 12A, 12B, 13A, 13B, 14A, 14B, and 15 show the in vitro inhibitory effect of the iminosugar compounds against Zika virus, FSS 13025 strain, as set forth in Table 3 below.
# [2] = In vitro cell cytotoxicity (CellTiter-Glo) in Vero cells; format: cell-based; details: African green monkey, 3-5 days, max concentration 500 or 1000 μM, * = average of two values
# [3] = tested on: Zika virus, FSS 13025 strain (ZIKV, Cambodia 2010); assay: Yield reduction assay followed by plaque assay in Vero cells, ZIKV Cambodia 2010; format: cell-based; details: for IC50: Zika virus, 96 h, read-out: ZIKV, Cambodian 2010 IC50; for IC50 (summary in words): summary of Table 3
# Experimental: as §1
# In the yield reduction assay, Vero cells were seeded in 24-well plates and incubated overnight. The next day, serial dilutions of a given compound were prepared at 300 μM, 100 μM, 30 μM, 10 μM, and 3.0 μM. Growth medium was removed from the cells and the serial dilutions of the given compound were added in duplicate for one hour. Zika virus, FSS 13025 strain (ZIKV, Cambodia 2010) was added at a multiplicity of infection (MOI) of 0.01 for one hour. Growth medium was added to 1 mL and the cells were incubated for 4 days. Thereafter, cell supernatants were harvested, cleared of cell debris by centrifugation, and stored at −80° C. until further analysis for viral content in a plaque assay.
# Plaque assays were performed by seeding Vero cells in 24-well plates and allowing the cells to adhere overnight. The next day each of the harvested supernatants from the yield-reduction assay were serially diluted 10-fold, growth medium was removed from the cells, and the adhered cells were infected with the dilutions of the supernatants for 1 h. Methylcellulose was added and the cells were incubated for 3 days. Plaques were visualized by staining the cell monolayer with crystal violet. Relative inhibition was calculated using IDBS XLFIT analysis program.
# as §2
# [4] = tested on: Zika virus (isolate FSS13025 of the Asian genotype); assay: Efficacy against lethal Zika virus infection in AG129 mice; format: in vivo; details: 1E2 FFU Zika virus, 750 mg/kg once daily for three days by oral gavage, starting 16 hours after exposure, vs vehicle (FIG. 1)
# Experimental: AG129 mice, aged 5-7 weeks, of both sexes were divided into groups of eight mice each. Mice were infected with 1E2 FFU of Zika virus (isolate FSS13025 of the Asian genotype). The mice were treated 16 hours after exposure. One group was administered 750 mg/kg of UV-4 once daily for three days. UV-4 was formulated in water and all doses were administered via oral gavage in a volume of 100 μL. A control group was administered vehicle (water) only. Predefined study endpoints were mortality, euthanasia due to severe morbidity, or termination after 10 days total. Weights were measured and health scores were determined daily.
# [5] = Vero cells, MOI 0.01, 5 days, plaque assay with immunostaining, * = average of multiple data points
# [6] = Vero cells, MOI 0.01, 4 days, plaque assay of supernatants, * = average of multiple data points
"IC50 [1, 5]","IC50 [3, 6]",IC50 (summary in words) [3],SMILES,CC50 [2],survival [4],IC50 ([1]; Vero),IC50 ([3]; Vero)
12.6 µM,10.1 µM,low micromolar activity,"COC(C)(C)CCCCCCCCN1C[C@H](O)[C@@H](O)[C@H](O)[C@H]1CO [Compound 2, (2R,3R,4R,5S)-2-(hydroxymethyl)-1-(9-methoxy-9-methyldecyl)piperidine-3,4,5-triol]",> 500 µM,,,
,,,"COCCCCCCCCCN1C[C@H](O)[C@@H](O)[C@H](O)[C@H]1CO [UV-4, (2R,3R,4R,5S)-2-(hydroxymethyl)-1-(9-methoxynonyl)piperidine-3,4,5-triol]",> 1000 µM,statistically significant survival benefit,> 100 µM,> 100 µM
> 100 µM,> 100 µM,,"CN(C)Cc1ccc(NCCCCCCN2C[C@H](O)[C@@H](O)[C@H](O)[C@H]2CO)c([N+](=O)[O-])c1 [Compound 11, (2R,3R,4R,5S)-1-(6-((4-((dimethylamino)methyl)-2-nitrophenyl)amino)hexyl)-2-(hydroxymethyl)piperidine-3,4,5-triol]",> 1000 µM,,,
69.6 µM,45.7 µM,,"OC[C@@H]1[C@@H](O)[C@H](O)[C@@H](O)CN1CCCCCCCCC1CCCO1 (stereo partly drawn) [Compound 1, (2R,3R,4R,5S)-2-(hydroxymethyl)-1-(8-(tetrahydrofuran-2-yl)octyl)piperidine-3,4,5-triol]",> 500 µM,,,
150 µM,12.1 µM,low micromolar activity,"CN1CCN(Cc2ccc(NCCCCCCN3C[C@H](O)[C@@H](O)[C@H](O)[C@H]3CO)c([N+](=O)[O-])c2)CC1 [Compound 15, (2R,3R,4R,5S)-2-(hydroxymethyl)-1-(6-((4-((4-methylpiperazin-1-yl)methyl)-2-nitrophenyl)amino)hexyl)piperidine-3,4,5-triol]",> 1000 µM,,,
> 100 µM,> 100 µM,,"O=[N+]([O-])c1cc(N2CCOCC2)ccc1NCCCCCCN1C[C@H](O)[C@@H](O)[C@H](O)[C@H]1CO [Compound 8, (2R,3R,4R,5S)-2-(hydroxymethyl)-1-(6-((4-morpholino-2-nitrophenyl)amino)hexyl)piperidine-3,4,5-triol]",> 1000 µM,,,
94.6 µM,38.7 µM,low micromolar activity,"[N-]=[N+]=Nc1ccc([N+](=O)[O-])c(NCCCCCCN2C[C@H](O)[C@@H](O)[C@H](O)[C@H]2CO)c1 [Compound 12, (2R,3R,4R,5S)-1-(6-((5-azido-2-nitrophenyl)amino)hexyl)-2-(hydroxymethyl)piperidine-3,4,5-triol]",140 µM,,,

SMILES,"IC50 [1, 5]","IC50 [3, 6]",IC50 (summary in words) [3],CC50 [2],survival [4],IC50 ([1]; Vero),IC50 ([3]; Vero)
"[N-]=[N+]=Nc1ccc(NCCCCCCN2C[C@H](O)[C@@H](O)[C@H](O)[C@H]2CO)c([N+](=O)[O-])c1 [UV-5, (2R,3R,4R,5S)-1-(6-((4-azido-2-nitrophenyl)amino)hexyl)-2-(hydroxymethyl)piperidine-3,4,5-triol]",,,low micromolar activity,77.3 µM,,5.24 µM,4.42 µM
